How the values were obtained:
human androgen receptor = biological target: T1, human androgen receptor (Homo sapiens, UniProt P10275); test: AR transcriptional activity on MMTV-LUC, CV-1 cells, AR co-expressed with PR-A; assay type: cell-based; conditions: AR plus PR-A, FIG. 10B
T1 sequence (P10275 1-920): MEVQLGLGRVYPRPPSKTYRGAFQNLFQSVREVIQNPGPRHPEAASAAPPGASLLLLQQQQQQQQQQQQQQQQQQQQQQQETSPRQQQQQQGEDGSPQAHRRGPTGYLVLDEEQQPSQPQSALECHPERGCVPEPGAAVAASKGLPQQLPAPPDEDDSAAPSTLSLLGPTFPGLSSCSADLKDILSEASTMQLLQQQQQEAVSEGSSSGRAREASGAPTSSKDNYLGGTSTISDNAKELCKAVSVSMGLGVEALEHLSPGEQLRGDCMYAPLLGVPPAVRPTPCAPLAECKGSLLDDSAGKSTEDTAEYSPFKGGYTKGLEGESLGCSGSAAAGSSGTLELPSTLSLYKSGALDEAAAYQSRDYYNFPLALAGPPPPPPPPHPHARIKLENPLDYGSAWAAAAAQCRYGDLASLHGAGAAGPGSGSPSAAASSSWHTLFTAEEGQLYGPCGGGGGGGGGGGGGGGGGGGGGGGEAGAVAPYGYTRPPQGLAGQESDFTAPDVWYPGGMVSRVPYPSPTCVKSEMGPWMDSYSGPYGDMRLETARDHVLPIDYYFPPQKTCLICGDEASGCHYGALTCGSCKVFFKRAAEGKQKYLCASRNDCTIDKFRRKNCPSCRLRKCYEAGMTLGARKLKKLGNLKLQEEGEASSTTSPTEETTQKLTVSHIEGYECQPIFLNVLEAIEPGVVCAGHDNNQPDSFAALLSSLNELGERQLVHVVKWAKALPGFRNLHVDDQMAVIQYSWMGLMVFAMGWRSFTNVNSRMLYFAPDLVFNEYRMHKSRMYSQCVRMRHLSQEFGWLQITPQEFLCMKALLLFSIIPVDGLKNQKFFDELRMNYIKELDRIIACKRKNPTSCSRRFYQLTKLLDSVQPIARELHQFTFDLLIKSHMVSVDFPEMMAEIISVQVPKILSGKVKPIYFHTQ
Method: FIGS. 10A-10B are a series of graphs showing CV-1 cells that were transiently transfected with an expression vector for the human androgen receptor (pRShAR) alone, or in combination with phPR-A together with 5 µg/ml of the MMTV-LUC reporter and 5 µg/ml of pCH110 as an internal control. […] The relative luciferase activity is calculated by dividing the normalized luciferase value at a given point by that obtained in the absence of transfected receptor or ligand. […] The data are presented as percent (%) activation, where 100% represents the maximal induction achieved by human androgen receptor at 10^ -8 M DHT. The experimental data represents mean values +/- the average deviation from the mean of quadruplicate estimations;
Cells were seeded in 12-well, 96-well or 10 cm tissue culture plates. […] 20 μg of DNA/ml of transfection buffer were used in each transfection reaction. In this mix, the concentration of the luciferase plasmids and that of the internal control plasmid pCH110 (Pharmacia, Inc.), which contains the gene for the β-galactosidase enzyme, remained constant ([…] of each plasmid DNA), while the receptor plasmid concentration varied as indicated for each experiment. […]

[1] = test system: human progesterone receptor isoform PR-B; test: PR-B transactivation of MMTV-LUC reporter, transient transfection; assay type: cell-based; conditions: 10^-7 M progesterone
Method: The cells were then incubated with either progesterone or an inert vehicle (ethanol (ETOH)). Western immunoblot analysis using two PR specific monoclonal antibodies (B30 and AB52, available from Dean Edwards, University of Colorado) confirmed that no hPR-A was synthesized from our PR-B constructs.

[2] = test system: PR-B (co-expressed with PR-A); test: PR-A effect on PR-B mediated PRE2 tk-LUC transcription (co-transfection); assay type: cell-based, human
Method: FIGS. 4A-4B are a series of graphs showing CV-1 ([…]) or HepG2 (FIG. 4B) cells that were transiently transfected with either […] of phPR-B or phPR-A alone, or phPR-B in the presence of increasing concentrations of phPR-A, together with 5 µg/ml of the PRE2 tk-LUC reporter and 5 µg/ml of pCH110 as an internal control. HeLa cells (FIG. 4C) were transfected with either phPR-B or phPR-A together with 5 µg/ml of the pTAT2950 reporter and 5 µg/ml of pCH110 as an internal control. […] The relative luciferase activity is calculated by dividing the normalized luciferase value at a given point by that obtained in the absence of transfected receptor or ligand. The data shown represent the mean +/- average deviation from the mean of triplicate estimations;
Both reporter plasmids were digested with XhoI and HindIII restriction enzymes and a 6.7 Kb fragment from MMTV-LUC and a 0.12 Kb fragment from PRE2 tk-CAT were isolated and ligated, resulting in a plasmid called PRE2 tk-LUC.
Cells were seeded in 12-well, 96-well or 10 cm tissue culture plates. […] 20 μg of DNA/ml of transfection buffer were used in each transfection reaction. […]

Row | Compound | effect on DHT-induced AR activity in the presence of PR-A (human androgen receptor) | progesterone mediated activation of the MMTV promoter ([1]; CV-1 cells, PR-B, FIG. 2A) | activation of the MMTV promoter by PR-B ([1]; HepG2 cells, FIG. 2C) | PR-A effect on PR-B activity on PRE2 tk-LUC ([2]; CV-1, 10^-7 M progesterone, FIG. 4A) | PR-A effect on PR-B transcriptional activity on PRE2 tk-LUC ([2]; HepG2, 10^-7 M progesterone, FIG. 4B)
1 | CC#C[C@]1(O)CC[C@H]2[C@@H]3CCC4=CC(=O)CCC4=C3[C@@H](c3ccc(C(C)=O)cc3)C[C@@]21C [ZK112993] | increased by the introduction of PR-A | – | – | – | –
2 | CC(=O)[C@H]1CC[C@H]2[C@@H]3CCC4=CC(=O)CC[C@]4(C)[C@H]3CC[C@]12C [progesterone] | – | permitted progesterone mediated activation of the MMTV promoter | both PR-A and PR-B functioned as efficient activators | repression of PR-B activity | no effect on PR-B transcriptional activity
